According to US9078874B2, “Composition and method for treating cognitive impairments in down syndrom subjects” (Centre National De La Recherche Scientifique—CNRS, priority 2009, dated 2015):

Columns and labels:
[1] = tested on: mice; assay: Anatomopathology after chronic treatment; assay type: in vivo; conditions: 5 mg/kg, 5 injections/week for 5 weeks
Procedure: FIG. 8 depicts results from a histological lesion study of α5IA after chronic treatment. Following chronic treatment with α5IA (5 mg/kg; 5 injections/week for 5 weeks), different organs were ablated and processed for routine histopathological examination. […] The same negative findings were observed following Periodic acid-Schiff staining of the tissues (not illustrated). […] The size and distribution of urine crystals (not illustrated) appeared to be very similar in the different groups. The scale bar represents 100 μm.
Mice treated for 2 weeks with α5IA and tested in the elevated plus maze were further treated for another 3 weeks. On the last day of treatment, urine samples were collected 2 hours after α5IA or placebo i.p. administration. Urine was stored at −20° C. before analysis. The day after, mice were injected i.p. with an overdose of sodium pentobarbital. Deeply anaesthetized mice received a PBS flush by means of an intracardiac perfusion. For anatomo-pathological examination, 3 additional euploid non-injected mice were also sacrificed. Liver, kidney, brain and spleen were dissected and fixed in a 10% formalin solution. Tissues were then paraffin-embedded and cut using a microtome (5 μm thick sections) before being processed for routine histopathological evaluation (hematein-eosin and Periodic acid-Schiff stainings).

[2] = tested on: GABAA receptors containing either an α1, α2, α3 or α5 subunit; conditions: cited from earlier work
[3] = tested on: young and elderly subjects; conditions: cited from earlier work
[4] = mainly in urine and in feces; cited from earlier work
[5] = tested on: euploid and Ts65Dn mice; assay: Morris water maze (MWM) spatial reference memory; assay type: in vivo
Procedure: Spatial reference memory was evaluated using the standard Morris water maze task. The maze was similar to the one described above (dose-response effects of α5IA). The platform was submerged 1 cm below water surface in the center of one of the pool quadrants. During spatial allocentric training the non-visible platform remained at a constant position throughout the trials with numerous external visual indices available to facilitate formation of spatial cognitive maps.
A total of 32 mice (16 euploid and 16 Ts65Dn mice) were used. Animals were randomly and equally distributed into 4 groups. Each day mice were injected with placebo or α5IA (5 mg/kg) 30 min before the onset of behavioral testing.
On the first day, mice were submitted to a single habituation trial with the non-visible platform available. On the following six days, spatial allocentric training consisted in daily sessions (2 trials per session). Start positions varied pseudo-randomly among the four cardinal points. Mean inter-trial interval was 2 hours. During the habituation and spatial training phases each trial ended when the animal reached the platform. A 90 sec cut-off was used, after which mice were manually guided to the platform. Once on the platform, animals were given a 20 sec rest before being replaced in their cage. Twenty-four hours after the last training session, a probe trial was performed (Day 8) during which the platform was removed and mice allowed to freely navigate for 60 sec.
Following evaluation of spatial learning and memory skills, visual ability of mice was controlled using a non-spatial training procedure. Platform location was directly cued by a white styrene ball placed 12 cm above water surface and access to external indices was prevented by a black curtain surrounding the pool. Testing in this visually guided navigation task consisted of 4 daily sessions for 4 consecutive days as described above.
All data were collected, analyzed and stored using a video-tracking system (Ethovision, Noldus, Wageningen, The Netherlands).
During probe trial one supplementary (euploid) mouse was removed from analysis for the same reason.

[6] = tested on: GABAA receptors α1, α2, α3 and α5 subtypes; conditions: α1, α2 and α3 subtypes; cited from earlier work
[7] = molecular target: GABAA receptors α1, α2, α3 and α5 subtypes (Homo sapiens, UniProt P31644); conditions: α5 subtype; cited from earlier work
[8] = Ts65Dn mice, 5 mg/kg i.p. 30 min before each session

GABAA receptors α1, α2, α3 and α5 subtypes (Homo sapiens, UniProt P31644), sequence (P31644 32-462): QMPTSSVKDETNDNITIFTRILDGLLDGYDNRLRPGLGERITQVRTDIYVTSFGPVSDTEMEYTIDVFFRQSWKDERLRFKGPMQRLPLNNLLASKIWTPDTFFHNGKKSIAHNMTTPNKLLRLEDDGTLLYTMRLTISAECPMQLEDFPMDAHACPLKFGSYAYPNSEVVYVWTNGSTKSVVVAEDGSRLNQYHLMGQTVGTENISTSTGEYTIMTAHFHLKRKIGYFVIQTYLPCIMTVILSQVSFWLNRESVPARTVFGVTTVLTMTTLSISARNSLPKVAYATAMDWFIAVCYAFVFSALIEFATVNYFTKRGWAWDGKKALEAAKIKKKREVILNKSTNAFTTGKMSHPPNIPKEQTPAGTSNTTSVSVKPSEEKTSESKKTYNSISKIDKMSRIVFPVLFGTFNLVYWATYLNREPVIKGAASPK
GABAA receptors α1, α2, α3 and α5 subtypes (Homo sapiens, UniProt P31644), sequence (P28472 26-473 partner): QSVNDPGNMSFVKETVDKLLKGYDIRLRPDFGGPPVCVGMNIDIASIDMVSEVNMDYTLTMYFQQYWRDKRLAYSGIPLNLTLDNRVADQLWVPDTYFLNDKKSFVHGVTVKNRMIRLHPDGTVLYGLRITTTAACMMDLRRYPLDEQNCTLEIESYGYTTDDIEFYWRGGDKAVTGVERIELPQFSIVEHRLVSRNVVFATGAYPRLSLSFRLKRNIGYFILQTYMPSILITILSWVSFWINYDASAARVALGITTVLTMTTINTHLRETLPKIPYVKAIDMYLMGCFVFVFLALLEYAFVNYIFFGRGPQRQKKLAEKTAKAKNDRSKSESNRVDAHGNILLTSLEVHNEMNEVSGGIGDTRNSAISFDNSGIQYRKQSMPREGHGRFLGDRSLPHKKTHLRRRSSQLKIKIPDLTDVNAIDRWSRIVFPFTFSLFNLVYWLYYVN
GABAA receptors α1, α2, α3 and α5 subtypes (Homo sapiens, UniProt P31644), sequence (P18507 40-475 partner): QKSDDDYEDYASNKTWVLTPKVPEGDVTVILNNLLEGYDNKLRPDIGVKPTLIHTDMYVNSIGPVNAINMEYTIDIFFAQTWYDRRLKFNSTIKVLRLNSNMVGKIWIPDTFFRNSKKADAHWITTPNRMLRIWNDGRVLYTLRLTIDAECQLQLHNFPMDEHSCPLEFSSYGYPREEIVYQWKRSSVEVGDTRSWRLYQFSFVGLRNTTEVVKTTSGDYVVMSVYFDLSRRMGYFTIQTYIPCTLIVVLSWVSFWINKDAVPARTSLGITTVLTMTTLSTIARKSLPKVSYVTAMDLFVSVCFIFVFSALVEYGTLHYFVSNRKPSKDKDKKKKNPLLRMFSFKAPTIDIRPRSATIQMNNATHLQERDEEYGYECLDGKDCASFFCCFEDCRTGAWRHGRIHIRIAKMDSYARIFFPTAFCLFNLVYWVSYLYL

Cc1cc(-c2nnc3c4ccccc4c(OCc4cn(C)nn4)nn23)no1 [α5IA, 3-(5-methylisoxazol-3-yl)-6-[(1-methyl-1,2,3-triazol-4-yl)methyloxy]-1,2,4-triazolo[3,4-a]phthalazine]
abnormal crystals in brain, hepatic and renal tissues under polarized light [1]: lack of abnormal crystals
histological lesions ([1]; liver, kidney, brain): did not induce any histological lesions
binding affinity at the benzodiazepine binding site [2]: equal affinity
tolerability [3]: well tolerated
metabolism [4]: exclusively metabolized into the hydroxymethyl isoxazol metabolite M1
hits (reaching the platform before 90 sec) [5, 8]: reversed after treatment
learning index [5, 8]: corrected by treatment
learning performance in the MWM ([5]; control euploid mice, 5 mg/kg): did not observe a significant promnesiant effect
thigmotaxy, significance of the effect ([5]; euploid mice (p=0.06), 5 mg/kg): just failed to reach statistical significance
retention performance during the probe test (24 hours) ([5]; euploid or Ts65Dn mice, 5 mg/kg): did not significantly increase retention performance
performance in the cued (visible platform) version of the MWM ([5]; p>0.16, 5 mg/kg): did not find any effect
thigmotaxy (wall-seeking behavior) ([5]; particularly in Ts65Dn mice (p<0.001), 5 mg/kg): strongly decreased
efficacy at the α1, α2 and α3 subtypes [6]: low or antagonist efficacy
efficacy at the α5 subtype [7]: exhibits inverse agonism
